Results taken from patent publication US8354388B2, “Inhibitors of MRP4 for the treatment of vascular disorders” (INSERM (Institut National de la Sante et de la Recherche …, priority 2007, dated 2013).
“Also recorded” adds a separate entry of the source. Like-named read-outs stand apart in the source and are kept apart here. One block for each molecule: values may come before it.

Tests used:
[1] = system: human coronary artery smooth muscle cells (hCASMC); test: BrdU incorporation proliferation assay in hCASMC; conditions: for hCASMC proliferation, relative increase compared to 0.1% S: without inhibitors 240±15.8%; for dose-effect on hCASMC proliferation: increasing doses; for inhibitory effect on hCASMC proliferation under inhibition of PKA by Ad-PKI: infection with Ad-PKI
Experimental: Cell proliferation was measured 72 hours after plating by BrdU incorporation and expressed as relative increase compared to growth supplement starved (0.1% S) cells. […] (b) Dose-effect of MRP and PDE inhibitors (DIP: Dipyridamole, IBMX, MK571 and NBMPR) on hCASMC proliferation. n=3 experiments in triplicate. * p≦0.05, ** p≦0.01, *** p≦0.001
Human smooth muscle cells were cultured in 96-wells tissue culture plates for 3 days in Smooth Muscle Cell Basal Medium 2 supplemented with 5% S. Medium containing 0.1% S was used for the growth arrest control. Cells were incubated with pharmacological agents or siRNA for 72 h in medium containing 5% S. BrdU was added for the last 16 hours. The cell culture plates were washed, and a colorimetric BrdU cell proliferation assay was performed according to the manufacturer's instructions (Roche).

MRP4 = molecular target: T1, MRP4 (Homo sapiens, UniProt O15439); conditions: literature reference 41; cited from earlier work
T1 sequence (O15439 1-1325): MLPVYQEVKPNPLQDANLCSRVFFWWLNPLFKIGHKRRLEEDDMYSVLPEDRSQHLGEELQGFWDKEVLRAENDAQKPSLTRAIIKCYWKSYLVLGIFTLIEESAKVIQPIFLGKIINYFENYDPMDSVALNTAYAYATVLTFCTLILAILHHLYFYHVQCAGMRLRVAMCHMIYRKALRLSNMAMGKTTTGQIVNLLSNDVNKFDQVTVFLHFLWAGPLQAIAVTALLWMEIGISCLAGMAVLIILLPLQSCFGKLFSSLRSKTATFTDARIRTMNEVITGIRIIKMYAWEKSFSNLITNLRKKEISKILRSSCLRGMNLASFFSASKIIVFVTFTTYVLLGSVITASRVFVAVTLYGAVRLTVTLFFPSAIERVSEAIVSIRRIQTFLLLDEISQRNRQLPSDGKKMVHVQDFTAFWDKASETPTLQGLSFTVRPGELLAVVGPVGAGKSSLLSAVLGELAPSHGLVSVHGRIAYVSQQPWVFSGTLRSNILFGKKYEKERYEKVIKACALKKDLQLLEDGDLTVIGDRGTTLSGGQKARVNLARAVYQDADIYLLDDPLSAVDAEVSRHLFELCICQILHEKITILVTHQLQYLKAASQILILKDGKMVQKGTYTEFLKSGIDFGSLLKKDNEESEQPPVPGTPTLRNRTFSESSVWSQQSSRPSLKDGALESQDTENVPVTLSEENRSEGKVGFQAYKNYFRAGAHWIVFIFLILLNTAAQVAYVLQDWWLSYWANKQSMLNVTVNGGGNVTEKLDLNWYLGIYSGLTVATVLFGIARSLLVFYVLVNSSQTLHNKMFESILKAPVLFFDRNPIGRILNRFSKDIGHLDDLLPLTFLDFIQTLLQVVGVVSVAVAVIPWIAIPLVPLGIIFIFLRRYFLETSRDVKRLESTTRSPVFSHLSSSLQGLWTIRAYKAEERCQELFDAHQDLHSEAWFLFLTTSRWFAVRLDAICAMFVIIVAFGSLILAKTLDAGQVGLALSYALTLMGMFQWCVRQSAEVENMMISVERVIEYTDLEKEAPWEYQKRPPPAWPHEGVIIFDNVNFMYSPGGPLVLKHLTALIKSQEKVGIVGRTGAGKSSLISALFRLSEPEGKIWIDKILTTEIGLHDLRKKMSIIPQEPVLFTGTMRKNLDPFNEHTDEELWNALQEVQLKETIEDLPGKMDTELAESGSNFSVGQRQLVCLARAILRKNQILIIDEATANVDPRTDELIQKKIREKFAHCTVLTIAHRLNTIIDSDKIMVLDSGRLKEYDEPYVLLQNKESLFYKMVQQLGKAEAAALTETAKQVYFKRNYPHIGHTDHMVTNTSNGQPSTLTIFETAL

[2] = system: intracellular cAMP in hCASMC; test: FRET imaging of cAMP with Epac2-camps in hCASMC; format: cell-based; conditions: Homo sapiens, read-out: EC50, dose providing 50% of maximal cAMP formation
Experimental: hCASMCs were transfected with scramble siRNA or the siRNA against MRP4 (each at 50 nM) in supplement-free medium over a period of 6 h, before the medium was replaced with supplement-containing medium. 24 h after the transfection, cells were infected with an adenovirus encoding the FRET-based cAMP sensor Epac2-camps. This FRET-based cAMP sensor contains a single cAMP binding domain of Epac2 fused to YFP and CFP fluorescent proteins. Upon addition of forskolin, increasing intra-cellular cAMP concentrations lead to a reversible conformational change of Epac2-camps which results in a decrease of FRET between CFP and YFP, leading to an increase in the CFP/YFP ratio^13. Imaging experiments were performed at 72 h and at room temperature. Cells were maintained in a K^+-Ringer solution containing (in mmol/L): NaCl 121.6, KCl 5.4, MgCl2 1.8; CaCl2 1.8; NaHCO3 4, NaH2PO4 0.8, D-glucose 5, sodium pyruvate 5, HEPES 10, adjusted to pH 7.4. Images were captured every 5 s using the 40× oil immersion objective of a Nikon TE 300 inverted microscope connected to a software-controlled (Metafluor, Molecular Devices, Sunnyvale, Calif., USA) cooled charge coupled (CCD) camera (Sensicam PE; PCO, Kelheim, Germany). […] Average fluorescence intensity was measured in a region of interest comprising the entire cell. […]
All quantitative data are presented as means ±SD. […]

[3] = system: phosphorylated CREB (pCREB); test: Phosphorylated CREB western blot in proliferating hCASMC; format: cell-based, human; conditions: p=0.003
Experimental: Total cell lysates were prepared according to standard protocol (Upstate Biotechnology). Membrane proteins were isolated by scraping the cells in buffer A (5 mmol/L Tris/HCl, 250 mmol/L sucrose, and 0.1 mmol/L ethylenediaminetetraacetic acid supplemented with protease inhibitors cocktail (Sigma). The lysate was centrifuged at 10000 g for 10 min at 4° C. and the supernatant further centrifuged at 100000 g for 1 h at 4° C. The resulting pellet was resuspended in buffer A. Proteins (50 μg) were separated by SDS 12% PAGE, blotted on Hybond-C membrane (Amersham Biosciences) and incubated with various antibodies. The anti-MRP4 antibody was previously described^17. Other antibodies were: anti-MRP5 antibody (1:250; Santa-Cruz Biotechnology), anti-Caveolin1 (1:5000, Abcam), anti-cyclinD1 (1:500, BD Biosciences), anti-PP2B (calcineurin) (1:250; BD Biosciences), anti-CREB (1:1000; Upstate Biotechnology), anti-phosphorylated CREB (1:1000; Upstate Biotechnology). Immunoreactive proteins were visualized using an ECL® (enhanced chemiluminescence) detection system (Amersham Biosciences). Optical Density was quantified using ImageJ software (National Institutes of Health, Bethesda, Md.). […]

[4] = system: human pulmonary artery smooth muscle cells (hPASMC); test: BrdU incorporation proliferation assay in hPASMC; format: cell-based
Text: FIG. 10. Inhibition of hPASMC (human pulmonary artery smooth musclulare cells) proliferation with MRP4 siRNA.

hCASMC = test: TUNEL staining for apoptosis in hCASMC; format: cell-based, human; conditions: siRNA transfected 72 h
Experimental: MRP4 or scramble siRNA were transfected in hCASMC for 72 h and the apoptosis was analyzed by TUNEL staining (ApopTag Red, Serologicals Corp). For the positive control, cells were treated with staurosporin (10 μM) for 1 h.

[5] = system: cyclic nucleotide efflux from hCASMCs; test: cAMP and cGMP competitive enzyme immunoassay, intra-/extra-cellular ratio in hCASMC; format: cell-based, human; conditions: hCASMC transfected 72 h
Experimental: Cyclic GMP and AMP were measured in cell culture supernates and in cell lysates in hCASMC transfected for 72 h either with the scramble siRNA or the MRP4 siRNA by specific competitive enzyme immunoassay as described by the manufacturer (R&D systems).

[6] = system: cAMP responsive element CRE; test: CRE-luciferase reporter gene assay in hCASMC; format: cell-based, human; conditions: 5% S, percent of control
Experimental: Cells were co-transfected with the siRNA (50 nM) and the CRE-luciferase reporter gene plasmid (Stratagene) by electroporation using amaxa® Nucleofector technology according to manufacturer's instructions. After, a period of 6 h, the medium was replaced with supplement containing medium. Cells were grown in the presence of 5% S for 66 h. The results are means for three independent experiments performed in triplicate. The luciferase activity was measured by using “the luciferase assay kit” (Promega). It was expressed as percent of control in relative luciferase units.

human MRP4 = test: MRP4 silencing in hCASMC (quantitative real-time PCR, western blot); format: cell-based; conditions: siRNA 50 nM, 72 hours after transfection
Experimental: Total RNA was prepared using RNeasy Mini Kit […] and 1 μg was reverse-transcribed using a standard protocol. One tenth of the resulting cDNA was amplified by 35 cycles of 30 s at 94° C., 30 s at Tm (60° C. for MRP4, MRP5 and RPL32) and 30 s at 72° C., followed by a final amplification at 72° C. for 10 min using 1 unit of BIOTAQ DNA Polymerase (Bioline) and 200 pmol each of the following primers: […]
Gene specific primers were used to amplify mRNA by qPCR on a Mx4000 apparatus (Stratagene) using the Qiagen SYBR Green master mix. The specificity of each primer set was monitored by analysis of the dissociation curve. A sample volume of 25 μl was used for each assay, which contained a 1× final concentration of SYBR green PCR master mix, 400 nM gene specific primers, and 5 μl template.
Total cell lysates were prepared according to standard protocol (Upstate Biotechnology). […] Optical Density was quantified using ImageJ software (National Institutes of Health, Bethesda, Md.). […]

[7] = 5% S, 72 h, maximal dose used (MK571 37.5 μM, NBMPR 100 μM)

Molecule: CC(C)Cn1c(=O)n(C)c(=O)c2[nH]cnc21 [IBMX]
hCASMC proliferation, relative increase compared to 0.1% S ([1]; 5% S, 72 h, IBMX 100 μM): 170±12% | dose-effect on hCASMC proliferation ([1]; 5% S, 72 h): dose-dependent inhibition

Molecule: CN(C)C(=O)CCSC(SCCC(=O)O)c1cccc(/C=C/c2ccc3ccc(Cl)cc3n2)c1 (stereo not drawn) [MK571]
dose-effect on hCASMC proliferation ([1]; 5% S, 72 h): dose-dependent inhibition | hCASMC proliferation, relative increase compared to 0.1% S [1, 7]: 153±11% | inhibitory effect on hCASMC proliferation under inhibition of PKA by Ad-PKI ([1]; MK571 37.5 μM, NMBPR 100 μM): also reversed

Molecule: O=[N+]([O-])c1ccc(CSc2ncnc3c2ncn3[C@@H]2O[C@H](CO)[C@@H](O)[C@H]2O)cc1 [NBMPR]
dose-effect on hCASMC proliferation ([1]; 5% S, 72 h): dose-dependent inhibition | hCASMC proliferation, relative increase compared to 0.1% S [1, 7]: 140±15% | inhibitory effect on hCASMC proliferation under inhibition of PKA by Ad-PKI ([1]; MK571 37.5 μM, NMBPR 100 μM): also reversed

Molecule: CCCc1nn(C)c2c(=O)[nH]c(-c3cc(S(=O)(=O)N4CCN(C)CC4)ccc3OCC)nc12 [Sildenafil]
reported MRP4 inhibition (MRP4): MRP4 inhibitor

Molecule: OCCN(CCO)c1nc(N2CCCCC2)c2nc(N(CCO)CCO)nc(N3CCCCC3)c2n1 [dipyridamole]
reduction of hCASMC proliferation compared to MK571 or NBMPR ([1]; 5% S, 72 h): no significant difference | dose-effect on hCASMC proliferation ([1]; 5% S, 72 h): dose-dependent inhibition

EC50 ([2]; MRP4 siRNA transfected hCASMC): 3 ± 0.6 µM | EC50 ([2]; scramble siRNA transfected hCASMC): 13.3 ± 2.2 µM
Molecule: C=C[C@@]1(C)CC(=O)[C@]2(O)[C@@]3(C)[C@@H](O)CCC(C)(C)[C@@H]3[C@H](O)[C@H](OC(C)=O)[C@@]2(C)O1 [forskolin]

Molecule: MRP4 siRNA: siRNA against human MRP4, sense 5′-CAGUGUUCUUACACUUCCUTT-3′ (SEQ ID NO:7), anti-sense 5′-AGGAAGUGUAAGAACACUGTT-3′ (SEQ ID NO:8) (chemistry not given here)
increase in level of pCREB compared to scramble siRNA [3]: 329±15% | hPASMC proliferation compared to scrambled siRNA [4]: significant decrease; also recorded: inhibits | apoptosis in hCASMC (hCASMC): not associated with apoptosis | cAMP intra-cellular/extra-cellular ratio compared to scramble siRNA [5]: 289±12.5% | cGMP intra-cellular/extra-cellular ratio compared to scramble siRNA [5]: 230±5.5% | CRE-luciferase activity compared to scramble siRNA [6]: 553±25% | decrease in MRP4 mRNA compared to scramble siRNA (human MRP4): 75±1% | decrease in MRP4 protein level compared to scramble siRNA (human MRP4; western blot): 74±6.8% | inhibitory effect on hCASMC proliferation under inhibition of PKG by KT5823 ([1]; KT5823, MK571 37.5 μM, NMBPR 100 μM): not by the inhibition of cGMP-dependent protein kinase G | inhibitory effect on hCASMC proliferation under inhibition of PKA by Ad-PKI ([1]; MK571 37.5 μM, NMBPR 100 μM): completely reversed | supplement mix-induced hCASMC proliferation, relative increase compared to 0.1% S ([1]; siRNA 50 nM, 72 h, 5% S, scramble siRNA 313±35%): 183±27%
